Key:
[1] = test system: monocytes from PBMC differentiated into M2 macrophage; assay: M2 macrophage differentiation assay; assay type: cell-based, human
Text: The purpose of this study was to evaluate the effects of lobeglitazone and other thiazolidinediones on M2 macrophage differentiation. The test articles and vehicles used in this study were lobeglitazone sulfate, pioglitazone HCl, and rosiglitazone.
M2 macrophage differentiation assay timeline was as follows in Table 10.
• (1) Isolate monocytes from PBMC using StemCell® monocyte isolation kit • (2) Count cell and adjust the cell density to 0.5×10^6 cells/ml with fresh complete differentiation medium. Add 5 μL M-CSF stock ([…]) to each 5 ml cell mixture. • (3) Seed isolated monocyte 100 μL per well on 96-well plate. • (4) Add test articles as the plate map using D300e (final concentration in μM). • (5) Differentiate the monocyte to macrophage in the presence of M-CSF to […] for 4 days. • (6) On day 4, add additional medium containing M-CSF. • (7) Add test compounds using D300e (final volume=[…]). • (8) On day 6, add IL-4 at 5× final concentration (IL-4 stock 0.1 mg/ml: dilute 10 μl stock into 10 ml medium for 100 ng/ml. Add 50 μl 100 ng/ml IL-4 to each well containing 200 μL medium to reach 20 ng/ml). • (9) On day 8, spin down the plates at 300×g for 5 min and collect the supernatant for cytokine quantification using MSD. • (10) M2 associated macrophage cytokines of interest are listed below in Table 12.
• (11) Collect cells for flow analysis of viability/CD11c/CD163/CD206.
Flow cytometry and surface marker CD163, CD11c, and CD206 were applied to characterize M2 repolarization. No stain and all stain with surface marker antibody to confirm the optimization of gating strategy.

[2] = test system: DSS-induced IBD model in female Balb/c mice; assay: DSS-induced IBD model: body weight, DAI score, colon length and weight; assay type: in vivo; settings: for DAI score: lobeglitazone groups (0.36, 1.20, 3.61 mg/kg PO QD)
Description: The purpose of this study was to test the efficacy of compound lobeglitazone in the DSS-induced IBD model in female Balb/c mice following oral administration. The study was conducted at an AAALAC accredited facility, and all animal study procedures were approved by the Institutional Animal Care and Use Committee (IACUC).
Precise amount of lobeglitazone sulfate (lot: EW34258-13-P1; purity: 97.6%) was weighted out into a clean tube, 0.5% CMC was added and vortexed fully, then sonicated 2-3 minutes to get an even suspension. The concentration of the solution was 0.361 mg/ml, 0.120 mg/mL, and 0.036 mg/mL. The dosing solution was freshly made daily until the end of the study. The compound was orally (PO), 10 mL/kg daily dosed for 10 days.
Totally 125.82 mg cyclosporin A (CSA, purity 98%) was weighed out into a clean tube, 2.055 mL castor oil was added firstly, then 39.046 mL […] (with 0.1% tween80) was added, vortexed fully, then sonicated 10 min to get a clear solution. The concentration of the solution was 3 mg/mL. The compound was PO, 10 mL/kg daily dosed for 10 days.
5% DSS preparation: […] DSS powder was weighted out into a clean bottle, 1 L Milli Q water was added subsequently, the solution was stirred until it was clear. Then 5% DSS was transferred to water bottle of the animal. 5% DSS was freshly made daily until the end of the study.
A total of 50 (7 weeks old) female Balb/c were purchased from Beijing Vital River Laboratory Animal Technology Co., Ltd. Animals were acclimatized for 1 week prior to the experiment. All the in vivo experimental procedures were approved by the institutional animal care and use committee (IACUC). All euthanasia was performed using carbon dioxide inhalation and all efforts were made to minimize animal suffering.
At the beginning of the study, randomization was performed based on body weight. All animals were randomly assigned to one of six groups (Table 1). The study schedule is described in FIG. 1.
DAI score was calculated by the sum of weight loss score, stool consistency score, and occult-gross bleeding score. Body weight loss was calculated by comparison with the body weight on day 1. Feces samples were collected from each individual animal, and stool consistency and occult-gross bleeding were evaluated according to Table 2. Stool Consistency was evaluated by the appearance of the feces. Occult-gross bleeding was evaluated using Fecal Occult Blood test strips. Occult bleeding score of 1 will be assigned if light or dark purple color developed within 20 seconds and longer than 15 seconds. Occult bleeding score of 2 was assigned if light or dark purple color developed within 15 seconds. Occult-gross bleeding score of 3 would be assigned if blood was visible in the feces.
Animals were euthanized by CO2 at the end of study. Colon length and colon weight (cecum is not included) were recorded, and macroscopic changes were scored based on Table 2. The colon was cleaned using saline, and all feces were removed before weight measurement. The middle part of colon was collected in cassette and fixed in 10% neutral buffered formalin (NBF) for H&E and PAS staining. For left colon, mucosal from colon surface was removed and then snap frozen in liquid nitrogen and store at −80° C. for QT-PCR analysis of TNF-α, IL-10, CCL2, and IL-1β. QT-PCR primers were purchased from Sangon Biotech Co., Ltd.
In vivo animal data were presented as mean±SEM. Statistical analysis was performed by one-way ANOVA followed by Dunnett's multiple comparison. […] The difference was considered significance when p<0.05.

[3] = lobeglitazone groups (0.36, 1.20, 3.61 mg/kg PO QD 10 days), vs control group

COc1ccc(Oc2cc(N(C)CCOc3ccc(CC4SC(=O)NC4=O)cc3)ncn2)cc1 (centres unmarked) [lobeglitazone, 5-(4-(2-((6-(4-Methoxyphenoxy)pyrimidin-4-yl)(methyl)amino)ethoxy)benzyl)thiazolidine-2,4-dione]
concentration at which M2 repolarization was promoted (M2 macrophage surface markers, flow cytometry) ([1]; CD163, CD11c, CD206, donor 1 and 2): ~0.025 UM
Eotaxin-2 expression ([1]; cytokine analysis (MSD), donor 1): remarkable promotion
MDC expression ([1]; cytokine analysis (MSD), donor 3): remarkable promotion
body weight changes ([2]; 0.36 mg/kg PO QD, vs control group): no significant body weight changes
body weight changes ([2]; 1.20 mg/kg PO QD, vs control group): no significant body weight changes
body weight changes ([2]; 3.61 mg/kg PO QD, day 2, vs control (no drug) group): significantly reduced
colon length [2, 3]: did not significantly increase
colon length/weight ratio [2, 3]: did not significantly decrease
colon weight [2, 3]: did not significantly change
DAI score ([2]; vs control group): did not significantly reduce
DAI score ([2]; vs control group, listed as Lobeglitazone): did not significantly decrease

Reference: US20250262209A1, “TREATMENT OF GASTROINTESTINAL DISEASES” (Aclipse Two, Inc., priority 2022, published 2025)
